Data from article PMC7794245, “Potent DNA gyrase inhibitors bind asymmetrically to their target using symmetrical bifurcated halogen bonds” (Nature Communications, 2021).
In brackets after ≈: the same amount, converted by molar mass. Where two headings read alike, the source gives them in different places.

Experiments:
S. aureus DNA gyrase [1] = target: T1, S. aureus DNA gyrase (Staphylococcus aureus, UniProt P20831); assay: Gyrase Supercoiling High Throughput Plate Assay (fluorescence), S. aureus; type: biochemical; details: fluorescence-based high throughput plate assay
T1 construct: purchased Inspiralis (Norwich, UK)
Method: A Gyrase Supercoiling High Throughput Plate Assay kit, purchased from Inspiralis (Norwich. UK), was used to determine IC50 values of compounds on S. aureus and E. coli gyrase. […] Biotinylated oligonucleotide in wash buffer was immobilized onto the wells, and the excess oligonucleotide was washed off with wash buffer and ultrapure water. […] The reactions were stopped by adding the TF buffer (50 mM NaOAc (pH 4.7), 50 mM NaCl, and 50 mM MgCl2) to allow the triplex formation (biotin–oligonucleotide–plasmid) for an additional 30 min. Afterward, the unbound plasmid was washed off using TF buffer, and the solution of Promega Diamond dye in T10 buffer (10 mM Tris-HCl (pH 8.0), 1 mM EDTA) was added. […] Preliminary screening was performed at four inhibitor concentrations of 100, 10, 1, and 0.1 μM. […] IC50 was calculated using nonlinear regression-based fitting of inhibition curves using log [inhibitor] versus response-variable slope (four parameters)—symmetrical equation in the GraphPad Prism 6.0 software (GraphPad Software, La Jolla, CA, USA, www.graphpad.com). IC50 values represent the mean of two to four independent measurements.
Target sequence in this assay (P20831 whole entry): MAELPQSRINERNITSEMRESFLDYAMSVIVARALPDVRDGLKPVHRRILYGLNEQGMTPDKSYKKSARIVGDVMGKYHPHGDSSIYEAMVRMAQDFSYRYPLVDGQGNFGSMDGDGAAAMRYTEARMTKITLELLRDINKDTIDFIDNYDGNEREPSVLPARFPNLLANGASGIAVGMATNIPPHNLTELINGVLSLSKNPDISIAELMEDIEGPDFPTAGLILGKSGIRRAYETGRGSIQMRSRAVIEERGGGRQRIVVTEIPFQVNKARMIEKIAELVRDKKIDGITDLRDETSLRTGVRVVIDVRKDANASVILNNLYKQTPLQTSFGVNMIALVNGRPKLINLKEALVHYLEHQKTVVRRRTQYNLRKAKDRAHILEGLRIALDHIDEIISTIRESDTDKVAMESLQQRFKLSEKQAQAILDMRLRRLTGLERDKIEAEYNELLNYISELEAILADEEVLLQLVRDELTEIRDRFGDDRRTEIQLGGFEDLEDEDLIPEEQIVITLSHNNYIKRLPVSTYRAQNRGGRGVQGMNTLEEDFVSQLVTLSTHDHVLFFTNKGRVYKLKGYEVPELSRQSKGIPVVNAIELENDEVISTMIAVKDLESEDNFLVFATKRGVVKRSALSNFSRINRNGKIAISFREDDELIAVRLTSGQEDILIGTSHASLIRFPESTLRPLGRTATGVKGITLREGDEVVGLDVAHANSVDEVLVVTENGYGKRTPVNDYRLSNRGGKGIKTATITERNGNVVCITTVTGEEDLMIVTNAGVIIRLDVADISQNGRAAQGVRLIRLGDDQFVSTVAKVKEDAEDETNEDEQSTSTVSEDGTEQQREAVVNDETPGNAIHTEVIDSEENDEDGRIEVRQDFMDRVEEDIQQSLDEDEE
Target sequence in this assay (P0A0K8 whole entry partner): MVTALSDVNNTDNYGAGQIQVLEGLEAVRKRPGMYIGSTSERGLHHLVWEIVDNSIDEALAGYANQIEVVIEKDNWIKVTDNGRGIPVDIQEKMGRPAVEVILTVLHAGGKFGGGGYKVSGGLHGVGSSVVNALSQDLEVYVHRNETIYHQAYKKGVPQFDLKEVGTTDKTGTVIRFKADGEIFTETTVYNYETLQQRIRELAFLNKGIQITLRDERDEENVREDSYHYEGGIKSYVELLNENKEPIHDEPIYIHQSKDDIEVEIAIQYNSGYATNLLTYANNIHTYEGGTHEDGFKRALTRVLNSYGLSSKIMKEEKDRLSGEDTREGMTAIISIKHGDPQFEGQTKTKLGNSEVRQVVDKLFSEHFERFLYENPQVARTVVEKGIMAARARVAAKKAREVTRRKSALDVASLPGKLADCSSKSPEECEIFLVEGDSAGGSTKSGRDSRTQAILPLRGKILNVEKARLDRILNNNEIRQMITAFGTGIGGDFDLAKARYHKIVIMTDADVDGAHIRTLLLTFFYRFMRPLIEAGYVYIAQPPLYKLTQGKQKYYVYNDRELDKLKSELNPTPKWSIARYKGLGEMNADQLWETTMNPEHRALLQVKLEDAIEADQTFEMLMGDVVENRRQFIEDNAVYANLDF

HUVEC = assay: Metabolic activity assessment (CellTiter 96 Aqueous One), HUVEC; type: cell-based; details: Homo sapiens, 72 h treatment, mean ± SD
Method: (§1) Supplementary Table 7. Results of cytotoxicity studies.
(§2) Metabolic activity assessment
(§3) Cells of the HepG2 line ( ATCC® HB-8065™) and HUVEC ( ATCC® CRL-1730™) were cultured in Dulbecco’s Modified Eagle Medium (DMEM; Sigma-Aldrich, St. Louis, MO, USA) supplemented with 10% heat -deactivated FBS (Gibco, Grand Island/NY, USA), 2 mM L -glutamine, 100 U/mL penicillin, 100 µg/mL streptomycin (all from Sigma -Aldrich) in a humidified chamber at 37 °C and 5% CO2. The experiments were carried out on passages 7 - 9 for both cell lines. The tested compounds were dissolved in DMSO and further diluted in culture medium to a desired final concentration. […]
(§4) 10^4 cells/mL (100 µL/well) and after attachm ent treated with seven different concentration of the selected compounds or corresponding vehicle as control. The metabolic activity was assessed after 72 h treatment using the CellTiter 96 Aqueous One Solution Cell Proliferation Assay (Promega, Madison/WI, USA), in accordance with the manufacturer’s instructions .7 The absorbance was measured at 492 nm on an automated microplate reader BioTek Synergy HT (BioTek Instruments, Inc.). Data are presented as IC 50 value (mean ± SD) from two independent experiments , each conducted in duplicate or triplicate. IC 50 values were calculated by a non -linear regression model using Graph Pad Prism 7 software. […]

HepG2 = assay: Metabolic activity assessment (CellTiter 96 Aqueous One), HepG2; type: cell-based; details: Homo sapiens, 72 h treatment, mean ± SD
Method: as §1, §2, §3, §4

hERG potassium channel = target: T2, hERG potassium channel (Homo sapiens, UniProt Q12809); assay: FP-based hERG binding assay (Invitrogen kit)
T2 construct: purchased Invitrogen (kit); assay run at TCG Lifesciences Pvt; Ltd. India
Method: Supplementary Table 7. Results of cytotoxicity studies. […]
Cardiovascular hERG inhibition
Cardiovascular safety profile was entirely outsourced. hERG screening was performed at TCG
Lifesciences Pvt. Ltd. India with FP -based hERG binding assay (Invitrogen kit).

S. aureus DNA gyrase [2] = target: T1, S. aureus DNA gyrase; assay: Gel-based S. aureus Gyrase Supercoiling assay (Inspiralis); type: biochemical
Method: gyrase supercoiling assays
In all experiments, the activity of the enzyme was determined prior to the testing of the compounds and 1 U defined as the amount of enzyme required to fully supercoil the substrate. This amount of enzyme was used in all subsequent assays. The final DMSO concentration in all the reactions was 1% (v/v). Compounds were serially diluted in DMSO and added to the reaction before the addition of the […]
Staphylococcus aureus gyrase supercoiling assay
1 U of DNA gyrase was incubated with 0.5 μg of relaxed pBR322 DNA in a 30 μl reaction at 37 °C for 30 min under the following conditions: 40 mM HEPES·KOH (pH 7.6), 10 mM magnesium acetate, 10 mM DTT, 2 mM ATP, 500 mM potassium glutamate and 0.05 mg/ml BSA. Each reaction was stopped by the addition of 30 μl chloroform/iso-amyl alcohol (24:1) and 20 μl Stop Dye (40% sucrose, 100 mM Tris.HCl ( pH 7.5), 10 mM EDTA, 0.5 μg/ml bromophenol blue), before being loaded on a 1.0% TAE (Tris.acetate […], EDTA […]). Gels run at 70V for 3 hours.
Data acquisition and analysis
Bands were visualised by ethidium staining for 10 min, destained for 10 min in water and bands were analysed by gel documentation equipment (Syngene, Cambridge, UK) and quantitated using Syngene Gene Tools software. Raw gel data (fluorescent band volumes) collected from Syngene, GeneTools gel analysis software were converted to a % of the 100% control (the fully supercoiled or relaxed […]
global curve fit non-linear regression tool was used to calculate IC50 data using the following equation:
Equation: Exponential Decay, Single, 2 Parameter f = ae−bx
(1 picture or pasted object on this page, not shown here)
Target sequence in this assay (P20831 whole entry): as the sequence (P20831 whole entry) above
Target sequence in this assay (P0A0K8 whole entry, further chain): as the sequence (P0A0K8 whole entry partner) above

S. aureus (ATCC 29213) = assay: Broth microdilution MIC, S. aureus; type: cell-based; details: Staphylococcus aureus, ATCC29213, 20 h, 37 °C
Method: (§5) Antimicrobial assays were performed by the broth microdilution method in 96-well plate format according to the Clinical and Laboratory Standards Institute guidelines[46] and European Committee on Antimicrobial Susceptibility Testing recommendations. First, bacterial suspensions of specific bacterial strains was prepared to obtain density equivalent to 0.5 McFarland turbidity standard, followed by dilution with cation-adjusted Mueller Hinton broth with TES (Thermo Fisher Scientific), to obtain a final inoculum of 10^5 colony-forming units/mL. Compounds were dissolved in DMSO and twofold dilutions were prepared, then inoculum was added and the mixture was incubated for 20 h at 37 °C. After incubation, the MIC values were read off by visual assessment as the lowest dilution of compound showing no turbidity. The MICs were determined against S. aureus (ATCC 29213), MRSA (NCTC12493), E. coli (ATCC 25922), E. coli D22, and E. coli N43 bacterial strains. Tetracycline was used as a positive control on every assay plate, displaying MICs of 0.5 and 1 μg/mL for S. aureus and E. coli, respectively.

MRSA (NCTC12493) = assay: Broth microdilution MIC, MRSA; type: cell-based, S. aureus; details: Staphylococcus aureus, 20 h, 37 °C
Method: as §5

E. coli (ATCC 25922) = assay: Broth microdilution MIC, E. coli; type: cell-based; details: Escherichia coli, ATCC25922, 20 h, 37 °C
Method: as §5

T2 sequence (Q12809 whole entry): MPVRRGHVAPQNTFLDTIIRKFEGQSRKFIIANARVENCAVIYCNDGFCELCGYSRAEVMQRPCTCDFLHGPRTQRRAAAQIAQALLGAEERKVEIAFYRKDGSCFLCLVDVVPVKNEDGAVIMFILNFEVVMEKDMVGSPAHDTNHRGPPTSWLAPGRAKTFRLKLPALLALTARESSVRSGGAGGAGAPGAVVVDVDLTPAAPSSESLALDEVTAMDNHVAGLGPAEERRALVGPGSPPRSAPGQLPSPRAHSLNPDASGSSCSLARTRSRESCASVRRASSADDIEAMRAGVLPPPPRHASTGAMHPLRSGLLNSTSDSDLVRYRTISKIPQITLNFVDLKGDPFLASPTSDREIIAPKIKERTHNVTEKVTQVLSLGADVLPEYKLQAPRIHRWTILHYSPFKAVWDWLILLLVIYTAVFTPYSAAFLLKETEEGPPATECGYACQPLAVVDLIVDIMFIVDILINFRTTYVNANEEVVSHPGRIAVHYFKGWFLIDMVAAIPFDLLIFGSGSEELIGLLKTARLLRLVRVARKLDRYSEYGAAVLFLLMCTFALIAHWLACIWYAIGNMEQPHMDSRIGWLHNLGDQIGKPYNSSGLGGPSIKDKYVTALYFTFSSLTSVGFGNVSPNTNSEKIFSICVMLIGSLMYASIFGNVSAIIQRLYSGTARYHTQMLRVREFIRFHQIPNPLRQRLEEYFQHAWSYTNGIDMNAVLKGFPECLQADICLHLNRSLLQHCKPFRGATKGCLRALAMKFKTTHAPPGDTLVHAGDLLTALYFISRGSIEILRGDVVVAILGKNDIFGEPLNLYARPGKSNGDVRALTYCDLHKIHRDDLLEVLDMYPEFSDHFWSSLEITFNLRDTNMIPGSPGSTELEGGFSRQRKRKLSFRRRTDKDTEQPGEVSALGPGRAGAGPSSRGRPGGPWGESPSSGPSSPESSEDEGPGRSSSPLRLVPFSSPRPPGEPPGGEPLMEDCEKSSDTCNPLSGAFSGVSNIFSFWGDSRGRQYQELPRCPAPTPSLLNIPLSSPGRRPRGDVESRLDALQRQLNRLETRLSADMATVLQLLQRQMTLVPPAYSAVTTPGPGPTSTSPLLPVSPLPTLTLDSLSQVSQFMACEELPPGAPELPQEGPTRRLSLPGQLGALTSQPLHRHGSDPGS

Compound: COc1ccc2nccc(CCN3CCC(NCc4ccccc4)CC3)c2n1 [Compound 2]
- IC50 (S. aureus DNA gyrase [1]): 1.02 µM
- IC50 (HUVEC): 54.1 ± 3.45 µM
- IC50 (HepG2): 17.7 ± 2.16 µM
- IC50 (hERG potassium channel): 1.05 µM

Compound: COc1ccc2nccc(CCN3CCC(NCc4ccc(F)cc4)CC3)c2n1 [Compound 3]
- IC50 (S. aureus DNA gyrase [1]): 0.55 µM
- IC50 (HUVEC): > 50 µM
- IC50 (HepG2): 12.7 ± 0.21 µM
- IC50 (hERG potassium channel): 0.59 µM

Compound: COc1ccc2nccc(CCN3CCC(NCc4ccc(Cl)cc4)CC3)c2n1 [Compound 4]
- IC50 (HUVEC): 27 ± 0.38 µM
- IC50 (HepG2): 10.16 ± 0.1 µM
- IC50 (hERG potassium channel): 0.27 µM

Compound: COc1ccc2nccc(CCN3CCC(NCc4ccc(Br)cc4)CC3)c2n1 [Compound 5]
- IC50 (S. aureus DNA gyrase [2]; IC50 S. aureus DNA gyrase supercoiling, gel-based assay): 0.007 µM
- IC50 (S. aureus DNA gyrase [2]; S. aureus gyrase supercoiling IC50 Assay 1, gel-based assay, assay 1): 0.007 µM
- IC50 (S. aureus DNA gyrase [2]; S. aureus gyrase supercoiling IC50 Assay 2, gel-based assay, assay 2): 0.007 µM
- IC50 (S. aureus DNA gyrase [2]; S. aureus gyrase supercoiling IC50 Average, gel-based assay, average of assay 1 and 2): 0.007 µM
- IC50 (S. aureus DNA gyrase [2]; S. aureus inhibition (DNA supercoiling IC50), as quoted in point-by-point response): 0.007 µM
- IC50 (S. aureus DNA gyrase [2]; S. aureus inhibition (DNA supercoiling IC50), as quoted in reviewer report): 0.007 µM
- IC50 (HUVEC): 25.42 ± 0.01 µM
- IC50 (HepG2): 9.37 ± 0.07 µM
- IC50 (hERG potassium channel): 0.29 µM

Compound: COc1ccc2nccc(CCN3CCC(NCc4ccc(I)cc4)CC3)c2n1 [Compound 6]
- IC50 (S. aureus DNA gyrase [2]; read-out: S. aureus gyrase supercoiling IC50 Assay 1, gel-based assay, assay 1): 0.013 µM
- IC50 (S. aureus DNA gyrase [2]; read-out: S. aureus gyrase supercoiling IC50 Assay 2, gel-based assay, assay 2): 0.009 µM
- IC50 (HUVEC): 19 ± 0.85 µM
- IC50 (HepG2): 8.47 ± 0.09 µM
- IC50 (hERG potassium channel; human, FP-based hERG binding assay kit (Invitrogen)): 0.18 µM

Compound: COc1ccc2nccc(CCN3CCC(NCc4ccc(C(N)=O)cc4)CC3)c2n1 [Compound 8]
- IC50 (HUVEC): > 50 µM
- IC50 (hERG potassium channel): 13.4 µM

Compound: COc1ccc2nccc(CCN3CCC(NCc4ccc(N(C)C)cc4)CC3)c2n1 [Compound 9]
- IC50 (S. aureus DNA gyrase [1]): 0.067 µM
- MIC (S. aureus (ATCC 29213)): 0.125 µg/mL (≈ 0.298 µM)
- MIC (MRSA (NCTC12493)): 0.25 µg/mL (≈ 0.596 µM)
- IC50 (HUVEC): 23.85 ± 0.09 µM
- IC50 (HepG2): 10.03 ± 0.06 µM
- IC50 (hERG potassium channel): 2.11 µM

Compound: CN(C)[C@@H]1C(O)=C(C(N)=O)C(=O)[C@@]2(O)C(O)=C3C(=O)c4c(O)cccc4[C@@](C)(O)[C@H]3C[C@@H]12 [Tetracycline, reference compound]
- MIC (S. aureus (ATCC 29213)): 0.5 µg/mL (≈ 1.13 µM)
- MIC (E. coli (ATCC 25922)): 1 µg/mL (≈ 2.25 µM)
